Test results as given in US10253038B2, “Fusicoccane derivatives and methods” (Florida State University Research Foundation, Inc., priority 2017, dated 2019).

Tests used:
[1] = biological target: T1, 14-3-3σ•Task-3 ctp interaction (Homo sapiens, UniProt P31947); experiment: Fluorescence polarization (FP) of fluorescein-labeled Task-3 ctp titrated with 14-3-3σ; format: binding; settings: for screen for functional interaction with 14-3-3σ•Task-3 ctp complex (result in words): library screen of 8a-j, 9-11, FIG. 3
T1 construct: made in house; host or cells: E. coli BL21
T1 sequence (P31947 whole entry, other chains not shown): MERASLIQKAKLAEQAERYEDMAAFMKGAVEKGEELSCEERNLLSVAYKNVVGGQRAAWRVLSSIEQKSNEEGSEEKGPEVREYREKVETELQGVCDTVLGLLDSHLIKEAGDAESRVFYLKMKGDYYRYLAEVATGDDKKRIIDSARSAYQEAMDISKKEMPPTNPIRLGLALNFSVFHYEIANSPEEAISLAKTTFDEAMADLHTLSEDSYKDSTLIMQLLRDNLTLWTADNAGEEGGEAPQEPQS
Method: (§1) Replicated in this example was Ottmann's characterization of interactions between 14-3-3σ and a synthetic hexapeptide of Task-3 containing the putative C-terminal 14-3-3-interaction motif KRRK-pS-V (Task-3 ctp). (Anders, C. et al., Chem. Biol. 2013, 13, 583-593).
(§2) Recombinant human 14-3-3σ was prepared using a bacterial expression protocol, which routinely produced 15 mg/L of purified protein. Recombinant 14-3-3σ was expressed in BL21 E. Coli cells and purified by Ni-affinity chromatography.
The titration protocol was adapted to 96-well plate format using fluorescence polarization (FP) experiments. FP measurements of fluorescein-labeled Task-3 ctp, in the absence and presence of 100 μM fusicoccin A (1), titrated with 14-3-3σ were used to obtain the apparent Kd of the 14-3-3σ•Task-3 ctp interaction. […] Also collected were FP measurements of fluorescein-labeled c-Raf peptide, in the absence and presence of 100 μM fusicoccin A (1), titrated with 14-3-3σ to obtain the apparent Kd of the 14-3-3σ•c-Raf peptide interaction.
Error bars indicate the mean±SD of three independent experiments.
In view of the foregoing control data, a library of synthetic derivatives, including 8a-j, 9-11, was screened for functional interactions 14-3-3σ•Task-3 ctp complex. […]

14-3-3σ•Task-3 ctp = biological target: T2, 14-3-3σ•Task-3 ctp (Homo sapiens, UniProt P31947); experiment: Isothermal titration calorimetry (ITC) of Task-3 ctp with 14-3-3σ in the presence and absence of fusicoccin A; format: binding; settings: 100 μM fusicoccin A vs absence
T2 construct: made in house; host or cells: E. coli BL21
T2 sequence (P31947 whole entry, other chains not shown): as above
Method: as §1, §2
This was determined by the association of ITC binding isotherms for Task-3 ctp with 14-3-3σ in the presence and absence of 100 μM of fusicoccin A (1).

14-3-3•PMA2 complex = settings: background statement; cited from earlier work

C=C(C)C1=C2[C@H]3C=C[C@]4(CCC[C@H]4C[C@@]2(C)CC1)O3 (racemic) [compound 11]
fold enhancement of apparent affinity of Task-3 ctp to 14-3-3σ ([1]; FP, DMSO (10%) in buffer, 1.6 mM compound): 1.2 fold | screen for functional interaction with 14-3-3σ•Task-3 ctp complex (result in words) [1]: increase the apparent affinity

C=CC(C)(C)OC[C@H]1O[C@H](O[C@@H]2C3=C([C@H](C)COC(C)=O)C[C@H](O)[C@]3(C)/C=C3/[C@@H](COC)CC[C@H]3[C@@H](C)[C@H]2O)[C@H](O)[C@@H](OC(C)=O)[C@@H]1O [fusicoccin A, reference compound]
fold enhancement of apparent affinity of Task-3 ctp to 14-3-3σ ([1]; FP, 100 μM fusicoccin A): 37 fold | EC50 ([1]; FP, fluorescein-labeled Task-3 ctp and 14-3-3σ titrated with compound, mean±SD of three experiments, read-out: EC50 of stabilization of the 14-3-3σ•Task-3 ctp complex): 1.4 ± 0.3 µM | fold stabilization of 14-3-3σ•Task-3 ctp (14-3-3σ•Task-3 ctp): 152 fold | prolongation of the lifetime of the 14-3-3•PMA2 complex (14-3-3•PMA2 complex): 90 fold

O=C1CCC2=C1[C@@]1(CN3CCOCC3)C=C[C@]3(CCC[C@H]3C2)O1 [compound 8f]
fold enhancement of apparent affinity of Task-3 ctp to 14-3-3σ ([1]; FP, DMSO (10%) in buffer, 6.3 mM compound): 1.1 fold | screen for functional interaction with 14-3-3σ•Task-3 ctp complex (result in words) [1]: increase the apparent affinity

O=C1CCC2=C1[C@H]1C=C[C@]3(CCC[C@H]3C2)O1 (racemic) [compound 8a, (±)-1,2,3,6,8,9,10,10a-octahydro-7H-3a,6-epoxydicyclopenta[a,d] [8]annulen-7-one]
melting point: 50.8 to 51.3 °C

CC1CC(=O)C2C3C=CC4(CCCC4CC12)O3 (racemic) [compound 9, (±)-9-Methyl-1,2,3,6,6a,8,9,9a, 10,10a-decahydro-7H-3a,6-epoxydicyclopenta[a,d] [8]annulen-7-one]
melting point: 88.9 to 91.3 °C
